The source of these data is patent publication US10131653B2, “Heterocyclic compound” (TAKEDA PHARMACEUTICAL COMPANY LIMITED, priority 2015, dated 2018).

Where two headings read alike, the source gives them in different places.

As a reminder, the inhibition is the relative decrease from the control value, in per cent.

The target of one experiment is T1, human OX1 receptor (Homo sapiens, UniProt O43613).
T1 construct: expressed in transfected cells; host or cells: CHO cells
T1 sequence (O43613 1-425): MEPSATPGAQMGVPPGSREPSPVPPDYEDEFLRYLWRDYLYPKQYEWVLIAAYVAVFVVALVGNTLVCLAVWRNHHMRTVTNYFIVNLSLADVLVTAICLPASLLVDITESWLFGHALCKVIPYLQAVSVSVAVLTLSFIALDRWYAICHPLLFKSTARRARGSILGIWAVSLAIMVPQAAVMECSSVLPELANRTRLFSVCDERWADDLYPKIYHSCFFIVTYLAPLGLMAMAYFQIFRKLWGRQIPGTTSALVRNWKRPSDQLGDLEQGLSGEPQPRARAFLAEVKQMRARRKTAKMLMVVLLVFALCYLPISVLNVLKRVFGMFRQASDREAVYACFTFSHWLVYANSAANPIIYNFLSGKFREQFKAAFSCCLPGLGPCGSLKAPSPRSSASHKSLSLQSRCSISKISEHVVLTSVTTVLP
Nature of the experiment: Measurement of orexin receptor antagonistic activity (calcium fluorescence, FLIPRtetra). In kind it is cell-based. Conditions: CHO, read-out: Human Orexin1 receptor inhibition (at 10 μM). The method in brief:
(§1)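 CHO cells expressing human OX1 or OX2 receptor, cultured one day. Compound in HBSS/20 mM HEPES/0.1% BSA added, then orexin-A at 1 nM final (OX1) or 0.3 nM final (OX2); calcium fluorescence by FLIPRtetra every 1 s for 2 min.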

For another experiment, the target named is T2, human OX2 receptor (Homo sapiens, UniProt O43614).
T2 construct: expressed in transfected cells; host or cells: CHO cells
T2 sequence (O43614 1-444): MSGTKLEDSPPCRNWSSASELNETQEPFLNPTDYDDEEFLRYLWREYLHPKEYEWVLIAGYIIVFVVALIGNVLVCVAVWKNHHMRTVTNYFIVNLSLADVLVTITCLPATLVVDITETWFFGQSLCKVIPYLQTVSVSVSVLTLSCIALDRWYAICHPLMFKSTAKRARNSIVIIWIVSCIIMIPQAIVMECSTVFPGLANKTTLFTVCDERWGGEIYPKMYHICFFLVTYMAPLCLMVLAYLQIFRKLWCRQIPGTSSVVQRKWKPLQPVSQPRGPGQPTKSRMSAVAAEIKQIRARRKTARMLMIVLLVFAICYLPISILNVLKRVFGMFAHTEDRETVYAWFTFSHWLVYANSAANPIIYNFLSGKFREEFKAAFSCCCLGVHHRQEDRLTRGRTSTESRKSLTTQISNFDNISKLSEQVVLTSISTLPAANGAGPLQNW
The experiment is described as above. In kind it is cell-based. Conditions: CHO, read-out: Human Orexin2 receptor inhibition (at 10 μM). The essentials:
as §1

Where [1] appears, read: 10 μM test compound, CHO cells expressing human OX1 receptor, OX-A 1 nM.
[2] abbreviates: 10 μM test compound, CHO cells expressing human OX2 receptor, OX-A 0.3 nM.

For `Cc1ccc(-n2nccn2)c(C(=O)N2CCN(c3cccc(C(F)(F)F)n3)OC[C@H]2C)c1` [Example 128, (5-methyl-2-(2H-1,2,3-triazol-2-yl)phenyl) ((6R)-6-methyl-2-(6-(trifluoromethyl)pyridin-2-yl)-1,2,5-oxadiazepan-5-yl)methanone], the inhibition at 10 µM on human OX1 receptor (setting [1]) was found to be 99%; on human OX2 receptor (setting [2]) it was 96%.
For `Cc1ccc(-n2nccn2)c(C(=O)N2CCN(c3nc(C)cnc3C)OC[C@H]2C)c1` [Example 129, ((6R)-2-(3,6-dimethylpyrazin-2-yl)-6-methyl-1,2,5-oxadiazepan-5-yl) (5-methyl-2-(2H-1,2,3-triazol-2-yl)phenyl)methanone], the inhibition at 10 µM stood at 38% on human OX1 receptor (setting [1]) and 86% at human OX2 receptor (setting [2]).
For `Cc1ccc(-n2nccn2)c(C(=O)N2CCN(c3cn4ccccc4n3)OC[C@H]2C)c1` [Example 130, ((6R)-2-(imidazo[1,2-a]pyridin-2-yl)-6-methyl-1,2,5-oxadiazepan-5-yl) (5-methyl-2-(2H-1,2,3-triazol-2-yl)phenyl)methanone], the inhibition at 10 µM came out at 62% on human OX1 receptor and 56% at human OX2 receptor.
For `Cc1cncc(N2CCN(C(=O)c3cc(C)ccc3-n3nccn3)[C@H](C)CO2)c1` [Example 131, ((6R)-6-methyl-2-(5-methylpyridin-3-yl)-1,2,5-oxadiazepan-5-yl) (5-methyl-2-(2H-1,2,3-triazol-2-yl)phenyl)methanone], the inhibition at 10 µM on human OX1 receptor is -7%; at human OX2 receptor it was 38%.
Consider `COc1cncc(N2CCN(C(=O)c3cc(C)ccc3-n3nccn3)[C@H](C)CO2)c1` [Example 132, ((6R)-2-(5-methoxypyridin-3-yl)-6-methyl-1,2,5-oxadiazepan-5-yl) (5-methyl-2-(2H-1,2,3-triazol-2-yl)phenyl)methanone], for which the inhibition at 10 µM came to 10% on human OX1 receptor (setting [1]) and 67% on human OX2 receptor (setting [2]).
Turning to `Cc1ccc(-n2nccn2)c(C(=O)N2CCN(c3cncc(Cl)c3)OC[C@H]2C)c1` [Example 133, ((6R)-2-(5-chloropyridin-3-yl)-6-methyl-1,2,5-oxadiazepan-5-yl) (5-methyl-2-(2H-1,2,3-triazol-2-yl)phenyl)methanone], the inhibition at 10 µM at human OX1 receptor is 11%; on human OX2 receptor, 70%.
The corresponding values for `Cc1ccc(-n2nccn2)c(C(=O)N2CCN(c3ccc(F)c(Cl)c3)OC[C@H]2C)c1` [Example 134, ((6R)-2-(3-chloro-4-fluorophenyl)-6-methyl-1,2,5-oxadiazepan-5-yl) (5-methyl-2-(2H-1,2,3-triazol-2-yl)phenyl)methanone] are 92% and 80%.
On to `Cc1ccc(-n2nccn2)c(C(=O)N2CCN(c3ccc(F)cc3)OC[C@H]2C)c1` [Example 135, ((6R)-2-(4-fluorophenyl)-6-methyl-1,2,5-oxadiazepan-5-yl) (5-methyl-2-(2H-1,2,3-triazol-2-yl)phenyl)methanone], for which the inhibition at 10 µM on human OX1 receptor was determined as 15%; on human OX2 receptor, 88%.
Turning to `Cc1ccc(-n2nccn2)c(C(=O)N2CCN(c3cc(C#N)ccn3)OC[C@H]2C)c1` [Example 136, 2-((6R)-6-methyl-5-(5-methyl-2-(2H-1,2,3-triazol-2-yl)benzoyl)-1,2,5-oxadiazepan-2-yl)isonicotinonitrile], the inhibition at 10 µM on human OX1 receptor (setting [1]) came out at 36%; on human OX2 receptor (setting [2]) it was 95%.
For the compound `COc1ccnc(N2CCN(C(=O)c3cc(C)ccc3-n3nccn3)[C@H](C)CO2)c1` [Example 137, ((6R)-2-(4-methoxypyridin-2-yl)-6-methyl-1,2,5-oxadiazepan-5-yl) (5-methyl-2-(2H-1,2,3-triazol-2-yl)phenyl)methanone], the inhibition at 10 µM at human OX1 receptor was 93%; on human OX2 receptor, 100%.
For the compound `Cc1ccc(-n2nccn2)c(C(=O)N2CCN(c3cccc(-n4cccn4)n3)OC[C@H]2C)c1` [Example 138, ((6R)-6-methyl-2-(6-(1H-pyrazol-1-yl)pyridin-2-yl)-1,2,5-oxadiazepan-5-yl) (5-methyl-2-(2H-1,2,3-triazol-2-yl)phenyl)methanone], the inhibition at 10 µM came to 96% at human OX1 receptor and 95% on human OX2 receptor.
As for `Cc1ccc(-n2nccn2)c(C(=O)N2CCN(c3cc(C(F)F)ccn3)OC[C@H]2C)c1` [Example 139, ((6R)-2-(4-(difluoromethyl)pyridin-2-yl)-6-methyl-1,2,5-oxadiazepan-5-yl) (5-methyl-2-(2H-1,2,3-triazol-2-yl)phenyl)methanone], the results for the inhibition at 10 µM at human OX1 receptor and at human OX2 receptor were 54% and 98%, respectively.
Turning to `Cc1ccc(-n2nccn2)c(C(=O)N2CCN(c3cccc(C#N)c3)OC[C@H]2C)c1` [Example 140, 3-((6R)-6-methyl-5-(5-methyl-2-(2H-1,2,3-triazol-2-yl)benzoyl)-1,2,5-oxadiazepan-2-yl)benzonitrile], the inhibition at 10 µM at human OX1 receptor is 21%; at human OX2 receptor, 88%.
The matching figures for `Cc1ccc(N2CCN(C(=O)c3cc(C)ccc3-n3nccn3)[C@H](C)CO2)nc1` [Example 141, ((6R)-6-methyl-2-(5-methylpyridin-2-yl)-1,2,5-oxadiazepan-5-yl) (5-methyl-2-(2H-1,2,3-triazol-2-yl)phenyl)methanone]: 71% and 99%.
The matching figures for `Cc1cc(C)nc(N2CCN(C(=O)c3cc(C)ccc3-n3nccn3)[C@H](C)CO2)c1` [Example 142, ((6R)-2-(4,6-dimethylpyridin-2-yl)-6-methyl-1,2,5-oxadiazepan-5-yl) (5-methyl-2-(2H-1,2,3-triazol-2-yl)phenyl)methanone]: 99% and 97%.
Regarding `Cc1ccc(-n2nccn2)c(C(=O)N2CCN(c3cc(C)nc(C)c3)OC[C@H]2C)c1` [Example 143, ((6R)-2-(2,6-dimethylpyridin-4-yl)-6-methyl-1,2,5-oxadiazepan-5-yl) (5-methyl-2-(2H-1,2,3-triazol-2-yl)phenyl)methanone], the inhibition at 10 µM worked out at 1% at human OX1 receptor and 44% on human OX2 receptor.
`Cc1ccc(-n2nccn2)c(C(=O)N2CCN(c3ccnc(C)c3)OC[C@H]2C)c1` [Example 144, ((6R)-6-methyl-2-(2-methylpyridin-4-yl)-1,2,5-oxadiazepan-5-yl) (5-methyl-2-(2H-1,2,3-triazol-2-yl)phenyl)methanone]: the inhibition at 10 µM turned out to be 14% on human OX1 receptor and 12% on human OX2 receptor.
In the case of `Cc1ccc(-n2nccn2)c(C(=O)N2CCN(c3ncccc3C)OC[C@H]2C)c1` [Example 145, ((6R)-6-methyl-2-(3-methylpyridin-2-yl)-1,2,5-oxadiazepan-5-yl) (5-methyl-2-(2H-1,2,3-triazol-2-yl)phenyl)methanone], the values for the inhibition at 10 µM on human OX1 receptor and on human OX2 receptor were 25% and 82%, respectively.
Take `Cc1ccc(-n2nccn2)c(C(=O)N2CCN(c3ccnc(C(F)(F)F)c3)OC[C@H]2C)c1` [Example 146, (5-methyl-2-(2H-1,2,3-triazol-2-yl)phenyl) ((6R)-6-methyl-2-(2-(trifluoromethyl)pyridin-4-yl)-1,2,5-oxadiazepan-5-yl)methanone]: the values for the inhibition at 10 µM on human OX1 receptor and on human OX2 receptor were 66% and 88%, respectively.
For the compound `Cc1cc(C)nc(N2CCN(C(=O)c3ccccc3-n3nccn3)[C@H](C)CO2)n1` [Example 147, ((6R)-2-(4,6-dimethylpyrimidin-2-yl)-6-methyl-1,2,5-oxadiazepan-5-yl) (2-(2H-1,2,3-triazol-2-yl)phenyl)methanone], the values for the inhibition at 10 µM at human OX1 receptor (setting [1]) and at human OX2 receptor (setting [2]) were 60% and 101%, respectively.
As to `Cc1cc(N2CCN(C(=O)c3ccccc3-n3nccn3)[C@H](C)CO2)nc(C)n1` [Example 148, ((6R)-2-(2,6-dimethylpyrimidin-4-yl)-6-methyl-1,2,5-oxadiazepan-5-yl) (2-(2H-1,2,3-triazol-2-yl)phenyl)methanone], the inhibition at 10 µM at human OX1 receptor (setting [1]) stood at 53%; at human OX2 receptor (setting [2]) it was 100%.
In the case of `C[C@@H]1CON(c2ncc(F)c(O)n2)CCN1C(=O)c1ccccc1-n1nccn1` [Example 149, ((6R)-2-(5-fluoro-4-hydroxypyrimidin-2-yl)-6-methyl-1,2,5-oxadiazepan-5-yl) (2-(2H-1,2,3-triazol-2-yl)phenyl)methanone], the inhibition at 10 µM at human OX1 receptor (setting [1]) is 3%; on human OX2 receptor (setting [2]) it was -6%.
